“And” between values parts separate entries of the source, which are not always exact repeats. Equal values may be shown once.
How the values were obtained:
[1] = system: TPA-stimulated epidermal DNA synthesis in mouse epidermis; assay: TPA-induced epidermal DNA synthesis in mouse epidermis, transdermal fluasterone; type: in vivo, CD-1 mice; settings: for cpm/μg DNA: 20 h, single mice and group mean
Description: In dose-response experiments the anti-hyperplastic efficacy of fluasterone in TPA-treated mouse epidermis to determine bioavailability following different routes of administration was measured. Mice were treated with a single dose of fluasterone (either orally, subcutaneously, or transdermally) followed by a single application of TPA to the shaved back one hour latter. In case of transdermal administration, fluasterone is applied in a topical formulation to the shaved abdomen to allow for systemic absorption to the back of the animal. Twenty hours after TPA application, the mice are injected with 60 μCi of [3H] thymidine, sacrificed 20 minutes later, and a 2×2 cm2 of skin from the shaved back is excised and processed for the determination of the amount of [3H] thymidine incorporated per unit of epidermal DNA. (Hennings et. al., Cancer Res. 28:543-552, 1968).
Female CD-1 mice, 40-43 days old, were obtained from Charles River Laboratories, Kingston, N.Y. The mice were housed two per cage in plastic shoebox cages on Absorbdri bedding with 12 hours of alternating light and dark in the Central Animal Facility. The mice had ad libitum access to Purina 5015 chow and acidified tap water (pH S 2.6). The mice were allowed to acclimate to the facility for approximately two weeks prior to use in an experiment. […]
The mice were weighed, marked with magic marker on the tail, and shaved on the back and the abdomen one day prior to treatment. Only those mice showing no hair regrowth were used in the experiment. Fluasterone was applied to the shaved abdomen one hour before TPA was applied to the shaved back. The mice were anesthetized and on their backs prior to topical application of TPA. […]
The mice were anesthetized with Isoflurane, and then were given an intramuscular injection of 0.1 mL solution of ketamine (50 mg/kg), xylazine (10 mg/kg) and atropine (0.1 mg/kg). Approximately 10 minutes after the i.m. injection (after the mice could not turn over when placed on their backs), the mice were treated with 5 μL of a 12.5 mg/mL fluasterone/carbitol solution to give a dose of 2.5 mg/kg. The mice were anesthetized and on their backs for approximately 30 minutes after application of fluasterone/carbitol solution. One hour after the application of fluasterone/carbitol solution, 2 μg of TPA dissolved in. 0.2 mL of acetone was applied to the shaved area on the back of each mouse. […]
The mice were anesthetized with Isoflurane, and then were given an intramuscular injection of 0.1 mL solution of ketamine (50 mg/kg), xylazine (10 mg/kg) and atropine (0.1 mg/kg). Approximately 10 minutes after the i.m. injection (after the mice could not turn over when placed on their backs), the mice were treated with 2.5 μl, of a 12.5 mg/mL fluasterone/carbitol solution to give a dose of 1.25 mg/kg. The mice were anesthetized and on their backs for approximately 30 minutes after application of fluasterone/carbitol solution. One hour after the application of fluasterone/carbitol solution, 2 μg of TPA dissolved in 0.2 mL of acetone was applied to the shaved area on the back of each mouse.
The mice were anesthetized with Isoflurane, and then were given an intramuscular injection of 0.1 mL solution of ketamine (50 mg/kg), xylazine (10 mg/kg) and atropine (0.1 mg/kg). Approximately 10 minutes after the i.m. injection (after the mice could not turn over when placed on their backs), the mice were treated with 10 μL of a 12.5 mg/mL fluasterone/Cremophor EL solution to give a dose of 5 mg/kg. The mice were anesthetized and on their backs for approximately 30 minutes after application of fluasterone/Cremophor EL solution. One hour after the application of fluasterone/Cremophor EL solution, 2 μg of TPA dissolved in 0.2 mL of acetone was applied to the shaved area on the back of each mouse.
The mice were anesthetized with Isoflurane, and then were given an intramuscular injection of 0.1 mL solution of ketamine (50 mg/kg), xylazine (10 mg/kg) and atropine (0.1 mg/kg). […]

[2] = system: TPA-stimulated epidermal DNA synthesis in mouse epidermis; assay: as above; type: in vivo, CD-1 mice; settings: 20 h; for μg DNA/0.2 mL / cpm / corrected cpm / μg DNA/0.2: single mice; for cpm/μg DNA: single mice and group mean
[3] = Cremophor EL solution, 1.25 mg/kg transdermal (abdomen) 1 h before 2 μg TPA (back), 1.25 mg/kg
[4] = Cremophor EL solution, 5 mg/kg transdermal (abdomen) 1 h before 2 μg TPA (back), 5 mg/kg
[5] = Cremophor EL solution, 1.9 mg/kg transdermal (abdomen) 1 h before 2 μg TPA (back), 1.9 mg/kg
[6] = Cremophor EL:ethanol (50:50 v/v) solution, 1.9 mg/kg transdermal (abdomen) 1 h before 2 μg TPA (back), 1.9 mg/kg
[7] = Cremophor EL:ethanol (50:50 v/v) solution, 2.5 mg/kg transdermal (abdomen) 1 h before 2 μg TPA (back), 2.5 mg/kg
[8] = Cremophor EL:ethanol (50:50 v/v) solution, 5 mg/kg transdermal (abdomen) 1 h before 2 μg TPA (back), 5 mg/kg
[9] = Tween 80:ethanol (50:50 v/v) solution, 1.9 mg/kg transdermal (abdomen) 1 h before 2 μg TPA (back), 1.9 mg/kg

C[C@]12CCCCC1=CC[C@@H]1[C@@H]2CC[C@]2(C)C(=O)[C@H](F)C[C@@H]12 [Fluasterone, 16α-fluoro-5-androsten-17-one]
cpm/μg DNA [1, 3]: 507.3 cpm/μg DNA and 414.3 cpm/μg DNA and 460.1 ± 65.8 cpm/μg DNA | cpm/μg DNA [1, 4]: 116.7 cpm/μg DNA and 147.4 cpm/μg DNA and 132.1 ± 21.7 cpm/μg DNA | lowest effective dose ([1]; Tween 80:ethanol (50:50 v/v) solution, transdermal): ≤ 2.5 mg/kg | cpm/μg DNA ([1]; carbitol solution, 1.9 mg/kg transdermal (abdomen) 1 h before 2 μg TPA (back), 1.9 mg/kg): 365.9 cpm/μg DNA and 227.7 cpm/μg DNA and 296.8 ± 97.7 cpm/μg DNA | cpm/μg DNA ([1]; carbitol solution, 5 mg/kg transdermal (abdomen) 1 h before 2 μg TPA (back), 5 mg/kg): 533.8 cpm/μg DNA and 467.1 cpm/μg DNA and 500.5 ± 47.2 cpm/μg DNA | cpm/μg DNA ([1]; ethanol:limonene:isopropyl myristate (81:15:4) solution, 1.5 mg/kg transdermal (abdomen) 1 h before 2 μg TPA (back), 1.5 mg/kg): 226.9 cpm/μg DNA and 147.5 cpm/μg DNA | transdermal potency compared with s.c. administration in abolishing TPA-stimulated hyperplasia ([1]; mice): as potent as subcutaneous injection | transdermal dose that suppresses TPA-stimulated epidermal [3H]thymidine incorporation and/or epidermal DNA content ([1]; topical solutions and suspension applied to abdomen): 2.5 mg/kg | μg DNA/0.2 mL [2, 3]: 28.1 μg DNA/0.2 mL and 14.9 μg DNA/0.2 mL | cpm/μg DNA [2, 5]: 161.0 cpm/μg DNA and 270.3 cpm/μg DNA and 215.7 ± 77.3 cpm/μg DNA | μg DNA/0.2 mL [2, 5]: 15.4 μg DNA/0.2 mL and 20.1 μg DNA/0.2 mL | μg DNA/0.2 mL ([2]; Cremophor EL solution, 2.5 mg/kg transdermal (abdomen) 1 h before 2 μg TPA (back), 2.5 mg/kg): 8.6 μg DNA/0.2 mL and 10.1 μg DNA/0.2 mL | cpm [2, 4]: 1,015 cpm and 1,686 cpm | μg DNA/0.2 mL [2, 4]: 8.4 μg DNA/0.2 mL and 11.2 μg DNA/0.2 mL | cpm/μg DNA [2, 6]: 207.8 cpm/μg DNA and 160.4 cpm/μg DNA | corrected cpm [2, 6]: 5,965 cpm and 4,025 cpm | cpm [2, 6]: 5,990 cpm and 4,050 cpm | μg DNA/0.2 [2, 6]: 28.7 μg DNA/0.2 and 25.1 μg DNA/0.2 | cpm/μg DNA [2, 7]: 423.2 cpm/μg DNA and 410.7 cpm/μg DNA and 462.8 cpm/μg DNA | corrected cpm [2, 7]: 7,068 cpm and 6,243 cpm and 6,341 cpm | cpm [2, 7]: 7,093 cpm and 6,268 cpm and 6,366 cpm | μg DNA/0.2 [2, 7]: 16.7 μg DNA/0.2 and 15.2 μg DNA/0.2 and 13.7 μg DNA/0.2 | cpm/μg DNA [2, 8]: 125.1 cpm/μg DNA and 222.9 cpm/μg DNA and 206.4 cpm/μg DNA | μg DNA/0.2 [2, 8]: 15.0 μg DNA/0.2 and 14.0 μg DNA/0.2 and 13.3 μg DNA/0.2 | cpm/μg DNA [2, 9]: 216.3 cpm/μg DNA and 189.8 cpm/μg DNA | corrected cpm [2, 9]: 3,114 cpm and 3,150 cpm | cpm [2, 9]: 3,139 cpm and 3,175 cpm | μg DNA/0.2 [2, 9]: 14.4 μg DNA/0.2 and 16.6 μg DNA/0.2

Reference: patent US9408856B2, “Topical steroidal formulations” (Temple University—Of The Commonwealth System of Higher …, priority 2008, dated 2016)
